Marks after values point to notes of the source that are not given here.
Assays:
[1] = parameters: method as in PMID 21275772; settings: T = 25 °C, I = 0.2 M (KCl), cited from earlier work; for pKa (additional): group named in the cell
KB-v1 cells = assay: MTT viability assay, KB-v1; format: cell-based; settings: Homo sapiens, KB-V1, 72 h, MTT 72 h
Source text: (§1) MDCK II canine kidney cells, A431 epidermoid carcinoma cells, the human uterine sarcoma cell lines MES-SA and the doxorubicin selected MES-SA-Dx5 were obtained from ATCC (MDCK II: No. CRL-2936™, A431: No. CRL-1555™, MES-SA: No. CRL-1976™, MES-SA/Dx5: No. CRL-1977™). ABCB1 was expressed in A431 and MES-SA cells using lentiviral transduction. The human cervix carcinoma cell line KB-3-1 and the vinblastine selected KB-v1were kind gifts from Dr. Michael M. Gottesman, National Institutes of Health. The phenotype of the resistant cells was verified using cytotoxicity assays. MDCK-B1 and MDCK-MM were established by the Sleeping Beauty transposon-based gene delivery system. OVCAR-8 and NCI-ADRres cells (obtained from the Division of Cancer Treatment and Diagnosis (DCTD) Tumor Repository (National Cancer Institute, Frederick, MD, USA)) were cultivated in RPMI-1640 (Sigma Aldrich, Budapest, Hungary), and other cell lines were cultivated in Dulbecco’s Modified Eagle Medium (DMEM, Sigma Aldrich, Budapest, Hungary), supplemented with 10% fetal bovine serum, 5 mM glutamine, and 50 unit/mL penicillin and streptomycin (Life Technologies, Carlsbad, CA, USA). All cell lines were cultivated at 37 °C, 5% CO2.
(§2) MTT viability assays were performed as described earlier with minor modifications. Briefly, cells were seeded into 96-well tissue culture plates (Sarstedt, Newton, NC, USA/Orange, Braine-l’Alleud, Belgium) at a density of 5000 cells/well and allowed to attach overnight. Test compounds were added to achieve the required final concentration in a final volume of 100 µL per well. After an incubation period of 72 h, the supernatant was removed and fresh medium containing the MTT reagent (0.083 mg/mL) was added. Incubation with MTT at 37 °C was terminated after 1 h by removing the supernatant and lysing the cells with 100 µL DMSO per well. Viability of the cells was measured spectrophotometrically based on the absorbance values at 540 nm using either a Perkin Elmer Victor X3 or an EnSpire microplate reader. Data were background corrected by subtraction of the signal obtained from unstained cell lysates and normalized to untreated cells. Curves were fitted by Prism software (GraphPad Software Inc., San Diego, CA, USA) using the sigmoidal dose-response model (comparing variable and fixed slopes). […] Significance was calculated using unpaired t-tests; results are given as *: p ≤ 0.05, **: p ≤ 0.01, ***: p ≤ 0.001, ****: p ≤ 0.0001.

A431-B1 cells = assay: MTT viability assay, A431-B1; format: cell-based; settings: for IC50: 72 h, MTT 72 h
Source text: as §1, §2

MES-SA/Dx5 cells [2] = assay: MTT viability assay, MES-SA/Dx5; format: cell-based, human; settings: for IC50: Homo sapiens, MES-SA/Dx5, Table S1, calculated as ligand equivalents, read-out: IC50 Dx5; for IC50 / SR: absence of TQ; for Effect of co-administration of CuCl2 on toxicity: MDR MES-SA/Dx5, increasing concentrations of CuCl2, MTT 72 h (Figure 2I-L); for Selective toxicity in the presence of 50 µM copper(II): MES-SA vs. MES-SA/Dx5, 50 µM copper(II); for MDR-selective toxicity with excess iron ions: MES-SA vs. MES-SA/Dx5, co-administered FeCl3; for Effect of co-incubation with iron(III) on cytotoxicity: MES-SA/Dx5, increasing concentrations of FeCl3, MTT 72 h (Figure 2A-D); for SR: Table S1, IC50 Pgp negative divided by Pgp positive cells; for SR_TQ: Table S1, presence of 1 µM TQ
Source text: as §1, §2

MDCK-B1 cells = assay: MTT viability assay, MDCK-B1 (wild-type Pgp); format: cell-based, canine; settings: for IC50: Canis lupus familiaris, 72 h, MTT 72 h
Source text: as §1, §2

OVCAR-8 cells = assay: MTT viability assay, OVCAR-8; format: cell-based; settings: Homo sapiens, OVCAR-8, 72 h, MTT 72 h
Source text: as §1, §2

MES-SA/Dx5 cells [3] = assay: ROS determination with DCFDA, MES-SA/Dx5; format: cell-based, human; settings: 2 h
Protocol: Measurements were performed as described earlier. Briefly, cells were harvested, washed with PBS, and incubated with 10 µM DCFDA in a water bath shaker at 37 °C for 30 min in a density of 3 × 10^6 cells/mL. After washing with PBS, cells were seeded to 96-well plates in PBS in a density of 2 × 10^4 cells/well. Following the measurement of the basal fluorescence, test compounds were added in different concentrations and the fluorescence of the samples was followed at time intervals of 10 min. DCFDA solution in buffer was used as a cell free control to test for interaction of the test compounds with DCFDA. Data were analyzed as fold change of fluorescence compared to basal levels and untreated cells. Significance was calculated using unpaired t-tests; results are given as *: p ≤ 0.05, **: p ≤ 0.01, ***: p ≤ 0.001, ****: p ≤ 0.0001.
Table S3: Characterization of intracellular ROS production with the DCFDA assay for P -gp negative MES-SA and P-gp positive MES-SA/Dx5 cells. Fold changes in fluorescence are shown after a 2 h with the investigated 8 -hydroxyquinoline ligands. Data S-refer to Figure 7 and allow […]
concentration range from 6.25µ M to 50µ M. Fold change of fluorescence obtained in the presence of 5 mM NAC is given in brackets.

[4] = presence of 1 µM Tariquidar (values in brackets)
[5] = IC50 MES-SA vs. MES-SA/Dx5, absence of Tariquidar
[6] = IC50 MES-SA vs. MES-SA/Dx5, presence of 1 µM Tariquidar (brackets)
[7] = Table 2, value in brackets (Tariquidar as in Table 1)
[8] = Table 2, value outside brackets
[9] = IC50 MDCK vs. MDCK-B1, absence of Tariquidar
[10] = IC50 MDCK vs. MDCK-B1, presence of 1 µM Tariquidar (brackets)
[11] = MES-SA/Dx5, 6.25 µM, presence of 5 mM NAC (brackets)
[12] = MES-SA/Dx5, 12.5 µM, presence of 5 mM NAC (brackets)
[13] = MES-SA/Dx5, 25 µM, presence of 5 mM NAC (brackets)
[14] = MES-SA/Dx5, 50 µM, presence of 5 mM NAC (brackets)

Row | IC50 (KB-v1 cells; absence of Tariquidar) [nM] | IC50 (KB-v1 cells; [4]) [nM] | IC50 (A431-B1 cells; absence of Tariquidar) [nM] | IC50 (A431-B1 cells; [4]) [nM] | SMILES | pKa (NquinoliniumH+) [1] | pKa (OH) [1] | pKa (additional) [1] | IC50 (MES-SA/Dx5 cells [2]) [nM] | SR MES-SA/Dx5 (MES-SA/Dx5 cells [2]; [5]) | SR MES-SA/Dx5 (MES-SA/Dx5 cells [2]; [6]) | Effect of co-administration of CuCl2 on toxicity (MES-SA/Dx5 cells [2]) | Selective toxicity in the presence of 50 µM copper(II) (MES-SA/Dx5 cells [2]) | MDR-selective toxicity with excess iron ions (MES-SA/Dx5 cells [2]) | Effect of co-incubation with iron(III) on cytotoxicity (MES-SA/Dx5 cells [2]) | SR MES-SA/Dx5 (Table 2) (MES-SA/Dx5 cells [2]; [7]) | SR MES-SA/Dx5 (Table 2) (MES-SA/Dx5 cells [2]; [8]) | SR (MES-SA/Dx5 cells [2]) | SR_TQ (MES-SA/Dx5 cells [2]) | IC50 (MDCK-B1 cells; absence of Tariquidar) [nM] | IC50 (MDCK-B1 cells; [4]) [nM] | further results
1 | 1560 ± 570 | 7470 | 1140 ± 160 | 5580 | Oc1c(CN2CCCCC2)ccc2cccnc12 [Compound Q-3, 7-(piperidin-1-ylmethyl)quinolin-8-ol] | 2.69 ^a | 6.99 ^a | >11.5 ^a | 860 ± 260 | 4.75 | 0.95 | not further sensitized | completely abrogated | significantly reduced | selectively protected MES-SA/Dx5 cells | 0.95 | 4.75 | 4.75 | 0.95 | 3220 ± 1020 | 12400 | SR A431-B1 (A431-B1 cells; IC50 A431 vs. A431-B1, absence of Tariquidar): 3.96; SR A431-B1 (A431-B1 cells; IC50 A431 vs. A431-B1, presence of 1 µM Tariquidar (brackets)): 0.73; SR MDCK-B1 (MDCK-B1 cells; [9]): 2.36; SR MDCK-B1 (MDCK-B1 cells; [10]): 0.82; IC50 (OVCAR-8 cells; absence of Tariquidar): 3150 ± 360 nM; IC50 (OVCAR-8 cells; [4]): 3720 nM; Fold change in fluorescence (DCFDA) (MES-SA/Dx5 cells [3]; MES-SA/Dx5, 6.25 µM): 1.449± 0.46; Fold change in fluorescence (DCFDA) (MES-SA/Dx5 cells [3]; [11]): 0.954± 0.15; Fold change in fluorescence (DCFDA) (MES-SA/Dx5 cells [3]; MES-SA/Dx5, 12.5 µM): 1.400± 0.18; Fold change in fluorescence (DCFDA) (MES-SA/Dx5 cells [3]; [12]): 1.050± 0.09; Fold change in fluorescence (DCFDA) (MES-SA/Dx5 cells [3]; MES-SA/Dx5, 25 µM): 1.586± 0.22; Fold change in fluorescence (DCFDA) (MES-SA/Dx5 cells [3]; [13]): 1.201± 0.17; Fold change in fluorescence (DCFDA) (MES-SA/Dx5 cells [3]; MES-SA/Dx5, 50 µM): 1.786± 0.36; Fold change in fluorescence (DCFDA) (MES-SA/Dx5 cells [3]; [14]): 1.189± 0.18
2 | 270 ± 120 | 2270 | 2570 ± 560 | 7950 | Oc1c(CNCc2ccccc2F)cc(Cl)c2cccnc12 [Compound Q-4, 5-chloro-7-((2-fluorobenzylamino)methyl)quinolin-8-ol] | < 2 ^a | 5.16 ^a | 8.54 ^a (NbenzylamineH2^+) | 200 ± 60 | 13.68 | 0.68 | not further sensitized | completely abrogated | significantly reduced | selectively protected MES-SA/Dx5 cells | 0.68 | 13.68 | 13.68 | 0.68 | 890 ± 350 | 6950 | SR MDCK-B1 (MDCK-B1 cells; [9]): 5.13; SR MDCK-B1 (MDCK-B1 cells; [10]): 0.85; IC50 (OVCAR-8 cells; absence of Tariquidar): 1080 ± 100 nM; IC50 (OVCAR-8 cells; [4]): 1090 nM; Fold change in fluorescence (DCFDA) (MES-SA/Dx5 cells [3]; MES-SA/Dx5, 6.25 µM): 1.238± 0.28; Fold change in fluorescence (DCFDA) (MES-SA/Dx5 cells [3]; [11]): 1.191± 0.07; Fold change in fluorescence (DCFDA) (MES-SA/Dx5 cells [3]; MES-SA/Dx5, 12.5 µM): 1.396± 0.35; Fold change in fluorescence (DCFDA) (MES-SA/Dx5 cells [3]; [12]): 1.337± 0.26; Fold change in fluorescence (DCFDA) (MES-SA/Dx5 cells [3]; MES-SA/Dx5, 25 µM): 1.340± 0.26; Fold change in fluorescence (DCFDA) (MES-SA/Dx5 cells [3]; [13]): 1.320± 0.31; Fold change in fluorescence (DCFDA) (MES-SA/Dx5 cells [3]; MES-SA/Dx5, 50 µM): 1.286± 0.30; Fold change in fluorescence (DCFDA) (MES-SA/Dx5 cells [3]; [14]): 1.283± 0.20
